The target in test [1] is Sodium-dependent noradrenaline transporter (Homo sapiens, UniProt P23975). As to the kind of experiment: Enhancing of [3H]mazindol binding to recombinant human NET expressed in HEK293 cell membranes preincubated for 10 mins followed by radioligand addition measured after 90 mins by micro beta scintillation counting analysis.
The target of test [2] is T1, Alpha-1B adrenergic receptor (Homo sapiens, UniProt P35368).
T1 sequence (P35368 whole entry): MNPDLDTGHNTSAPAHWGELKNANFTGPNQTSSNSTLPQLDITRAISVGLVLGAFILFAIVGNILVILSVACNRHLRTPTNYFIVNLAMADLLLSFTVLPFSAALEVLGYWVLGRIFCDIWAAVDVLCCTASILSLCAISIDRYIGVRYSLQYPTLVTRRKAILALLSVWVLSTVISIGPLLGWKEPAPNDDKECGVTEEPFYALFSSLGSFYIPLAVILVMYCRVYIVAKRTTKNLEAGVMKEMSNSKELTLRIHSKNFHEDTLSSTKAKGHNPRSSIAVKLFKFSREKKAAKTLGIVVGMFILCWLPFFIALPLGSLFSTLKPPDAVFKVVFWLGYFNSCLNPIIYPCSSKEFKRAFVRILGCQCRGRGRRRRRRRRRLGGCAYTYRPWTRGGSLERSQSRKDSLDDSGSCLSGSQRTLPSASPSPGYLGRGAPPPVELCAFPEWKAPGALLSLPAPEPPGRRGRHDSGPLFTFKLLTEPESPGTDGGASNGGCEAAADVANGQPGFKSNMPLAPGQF
The test can be described thus: Displacement of [3H]Prazosin from human adrenergic alpha1B receptor. For orientation: In a radioligand displacement assay an active substance lowers the binding of a labelled ligand.

Test [3] concerns the target T2, Alpha-1D adrenergic receptor (Homo sapiens, UniProt P25100).
T2 sequence (P25100 whole entry): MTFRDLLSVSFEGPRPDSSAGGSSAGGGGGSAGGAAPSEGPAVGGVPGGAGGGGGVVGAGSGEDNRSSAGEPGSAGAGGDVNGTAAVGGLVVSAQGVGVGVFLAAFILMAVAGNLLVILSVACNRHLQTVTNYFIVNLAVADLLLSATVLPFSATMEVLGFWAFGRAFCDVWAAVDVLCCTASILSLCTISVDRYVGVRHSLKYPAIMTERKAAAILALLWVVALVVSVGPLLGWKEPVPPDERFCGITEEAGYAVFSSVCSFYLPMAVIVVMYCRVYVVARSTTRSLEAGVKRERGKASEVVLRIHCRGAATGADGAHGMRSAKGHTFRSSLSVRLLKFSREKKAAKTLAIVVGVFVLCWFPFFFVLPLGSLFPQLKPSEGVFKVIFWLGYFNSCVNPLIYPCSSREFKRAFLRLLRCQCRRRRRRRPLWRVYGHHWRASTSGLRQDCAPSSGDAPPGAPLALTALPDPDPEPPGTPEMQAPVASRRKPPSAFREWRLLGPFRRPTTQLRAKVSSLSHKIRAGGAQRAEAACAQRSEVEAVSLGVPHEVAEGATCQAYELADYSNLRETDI
As to the kind of experiment: Displacement of [3H]Prazosin from human adrenergic alpha1D receptor.

In test [4] the target is T3, Alpha-1A adrenergic receptor (Homo sapiens, UniProt P35348).
T3 sequence (P35348 whole entry): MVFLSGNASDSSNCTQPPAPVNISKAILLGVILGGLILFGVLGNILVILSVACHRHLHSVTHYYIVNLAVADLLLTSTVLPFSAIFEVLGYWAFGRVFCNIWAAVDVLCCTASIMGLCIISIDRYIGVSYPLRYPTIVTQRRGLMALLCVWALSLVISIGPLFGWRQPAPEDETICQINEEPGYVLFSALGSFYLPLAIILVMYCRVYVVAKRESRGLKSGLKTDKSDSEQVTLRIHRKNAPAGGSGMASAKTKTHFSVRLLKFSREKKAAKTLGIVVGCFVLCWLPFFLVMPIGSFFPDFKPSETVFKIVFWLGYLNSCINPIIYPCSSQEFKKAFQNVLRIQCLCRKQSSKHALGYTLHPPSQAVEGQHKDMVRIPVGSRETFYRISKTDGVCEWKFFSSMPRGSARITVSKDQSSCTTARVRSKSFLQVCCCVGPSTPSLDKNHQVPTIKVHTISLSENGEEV
As to the kind of experiment: Displacement of [3H]Prazosin from human adrenergic alpha1A receptor.

We go through one compound from ChEMBL document CHEMBL4007505 (J Med Chem, 2017).

Active and inactive are the calls of the source. The calls are words filed in the database; no cut-off is given here.

Sodium-dependent noradrenaline transporter, sequence (P23975 whole entry): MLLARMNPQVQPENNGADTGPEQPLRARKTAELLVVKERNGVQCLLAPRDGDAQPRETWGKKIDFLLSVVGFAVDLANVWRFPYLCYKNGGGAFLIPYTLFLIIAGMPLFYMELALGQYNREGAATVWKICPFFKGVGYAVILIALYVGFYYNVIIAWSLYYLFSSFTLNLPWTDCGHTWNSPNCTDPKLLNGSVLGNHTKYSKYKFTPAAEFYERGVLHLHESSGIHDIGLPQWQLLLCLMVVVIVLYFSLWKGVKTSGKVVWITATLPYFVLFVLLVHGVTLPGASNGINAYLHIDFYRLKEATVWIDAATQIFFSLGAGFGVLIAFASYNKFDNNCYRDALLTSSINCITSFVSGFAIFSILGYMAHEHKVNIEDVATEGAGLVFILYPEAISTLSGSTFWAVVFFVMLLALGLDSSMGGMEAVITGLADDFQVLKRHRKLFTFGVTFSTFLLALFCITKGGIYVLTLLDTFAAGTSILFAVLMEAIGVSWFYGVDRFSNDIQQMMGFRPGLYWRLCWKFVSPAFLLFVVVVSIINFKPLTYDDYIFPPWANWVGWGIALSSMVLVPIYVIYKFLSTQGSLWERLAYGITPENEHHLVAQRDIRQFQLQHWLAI

For `CNc1nc(C#Cc2ccc(Cl)s2)nc2c1ncn2[C@@H]1O[C@H](C(=O)OC)[C@@H](O)[C@H]1O`, the outcome in test [1] was inactive. For the same compound, the Ki in test [2], in test [3] and in test [4] was > 10 µM in each case.
